# The source made the active and inactive calls. No cut-off for these calls is given here.
# How the values were obtained:
# [1] = system: Trypanosoma brucei rhodesiense; test: Antitrypanosomal activity against bloodstream Trypanosoma brucei rhodesiense STIB900 assessed as parasite growth inhibition at 2 ug/ml measured after 70 hrs by Alamar blue assay relative to control; type: functional; details: for inhibition at 2 µg/mL: STIB900, 70 h
# Trypanosoma cruzi [2] = test: Antitrypanosomal activity against Trypanosoma cruzi Tulahuen C4 trypomastigotes infected in rat L6 cells assessed as parasite growth inhibition at 2 ug/ml measured after 96 hrs by inverted microscopy analysis relative to control; type: functional; details: for inhibition at 2 µg/mL: Tulahuen C4, L6, 96 h
# Leishmania donovani [3] = test: Antileishmanial activity against Leishmania donovani MHOM-ET-67/L82 axenic amastigotes assessed as parasite growth inhibition at 2 to 10 ug/ml measured after 72 hrs by Alamar blue based inverted microscopy analysis relative to control; type: functional
# [4] = system: Trypanosoma brucei rhodesiense; test: Antitrypanosomal activity against bloodstream Trypanosoma brucei rhodesiense STIB900 assessed as parasite growth inhibition measured after 70 hrs by Alamar blue assay; type: functional, organism-based; details: STIB900, 70 h
# Trypanosoma cruzi [5] = test: Antitrypanosomal activity against Trypanosoma cruzi Tulahuen C4 trypomastigotes infected in rat L6 cells assessed as parasite growth inhibition measured after 96 hrs by inverted microscopy analysis; type: functional, organism-based; details: Tulahuen C4, L6, 96 h
# Leishmania donovani [6] = test: Antileishmanial activity against Leishmania donovani MHOM-ET-67/L82 axenic amastigotes assessed as parasite growth inhibition measured after 72 hrs by Alamar blue based inverted microscopy analysis; type: functional, organism-based; details: MHOM-ET-67/L82, 72 h
# L6 = test: Cytotoxicity against rat L6 cells assessed as reduction in cell viability measured after 72 hrs by Alamar blue based inverted microscopy analysis; details: L6, 72 h
# Plasmodium falciparum = test: Antiplasmodial activity against Plasmodium falciparum NF54 measured after 24 hrs in presence of [3H] hypoxanthine by liquid scintillation counter analysis; type: functional, organism-based
# [7] = (§1) Selectivity index, ratio of IC50 for rat L6 cells assessed as reduction in cell viability measured after 72 hrs by Alamar blue based inverted microscopy analysis to IC50 for bloodstream Trypanosoma brucei rhodesiense STIB900 assessed as parasite growth inhibition measured after 70 hrs by Alamar blue assay; type: toxicity; details: read-out: Ratio IC50
# [8] = Selectivity index, ratio of IC50 for rat L6 cells assessed as reduction in cell viability measured after 72 hrs by Alamar blue based inverted microscopy analysis to IC50 for Trypanosoma cruzi Tulahuen C4 trypomastigotes infected in rat L6 cells assessed as parasite growth inhibition measured after 96 hrs by inverted microscopy analysis; type: toxicity; details: read-out: Ratio IC50
# [9] = as §1, with “Leishmania donovani MHOM-ET-67/L82 axenic amastigotes” for “bloodstream Trypanosoma brucei rhodesiense STIB900”, “72” for “70”, “based inverted microscopy analysis” for “assay”; type: toxicity; details: for selectivity ratio at 72 h: L6 cells, read-out: Ratio IC50
# [10] = Selectivity index, ratio of IC50 for rat L6 cells assessed as reduction in cell viability measured after 72 hrs by Alamar blue based inverted microscopy analysis to IC50 for Plasmodium falciparum NF54 measured after 24 hrs in presence of [3H] hypoxanthine by liquid scintillation counter analysis; type: toxicity; details: read-out: Ratio IC50
# [11] = system: Trypanosoma brucei brucei; test: Antitrypanosomal activity against Trypanosoma brucei brucei assessed as parasite growth inhibition; type: functional, organism-based
Compound,inhibition (Trypanosoma cruzi [2]),inhibition at 2 µg/mL [1] [%],IC50 [4] [µM],IC50 (Leishmania donovani [6]) [nM],IC50 (L6; read-out: IC50) [µM],IC50 (Plasmodium falciparum) [nM],selectivity ratio at 72 h [7],selectivity ratio at 72 h [9],selectivity ratio at 72 h [10],inhibition (INH) (Leishmania donovani [3]) [%],further results
C[C@@H](CCC(N)=O)[C@H]1CC[C@H]2[C@@H]3CC[C@@H]4C[C@H](O)CC[C@]4(C)[C@H]3C[C@H](O)[C@]12C,,,,,,,,,,,inhibition [1]: inactive
CCc1ccccc1N=C=S,inactive,> 50,,,,,,,,,inhibition (Leishmania donovani [3]): inactive
COc1ccc2c(c1OC)CO[C@@H]2[C@H]1c2c(cc3c(c2OC)OCO3)CCN1C(CN=C=S)c1cccnc1 (some centres undefined),,> 50,2.7,900,7.1,2500,2.6,8,2.9,>90,IC50 (Trypanosoma cruzi [5]): 1900 nM; inhibition at 2 µg/mL (Trypanosoma cruzi [2]): 100%; selectivity ratio at 72 h [8]: 3.8
C[C@@H](CCCN=C=S)[C@H]1CC[C@H]2[C@@H]3[C@@H](O)C[C@@H]4C[C@H](O)CC[C@]4(C)[C@H]3CC[C@]12C,inactive,> 50,1.6,,4.3,,2.7,,,>90,
C[C@@H](CCC(N)=O)[C@H]1CC[C@H]2[C@@H]3CC[C@@H]4C[C@H](O)CC[C@]4(C)[C@H]3CC[C@]12C,,,,,,,,,,,inhibition [1]: inactive
C[C@@H](CCC(N)=O)[C@H]1CC[C@H]2[C@@H]3[C@H](O)C[C@@H]4C[C@H](O)CC[C@]4(C)[C@H]3C[C@H](O)[C@]12C,,,,,,,,,,,inhibition [1]: inactive
Cc1ccc(N=C=S)cc1,inactive,> 50,37.1,,325,,8.8,,,,inhibition (Leishmania donovani [3]): inactive
O=C(Cn1ccnc1[N+](=O)[O-])NCc1ccccc1 [BENZNIDAZOLE],,,,,> 380,,,196,,,IC50 (Trypanosoma cruzi [5]): 2410 nM; selectivity ratio at 72 h [8]: > 158
COC(=O)[C@H](Cc1c[nH]c2ccccc12)N=C=S,inactive,> 50,22.5,7100,78.1,10200,3.5,10.9,7.7,>90,Ratio IC50 ([9]; 72 h): 14.4
COc1ccc2c(c1OC)CO[C@@H]2[C@H]1c2c(cc3c(c2OC)OCO3)CCN1C(CN)c1ccc(C)cc1 (some centres undefined),,> 50,1,,23.3,1800,24.4,,12.8,,
Fc1ccc(N=C=S)cc1,inactive,> 50,46.6,,287,,6.2,,,,inhibition (Leishmania donovani [3]): inactive
C[C@@H](CCCN=C=S)[C@H]1CC[C@H]2[C@@H]3[C@H](O)C[C@@H]4C[C@H](O)CC[C@]4(C)[C@H]3C[C@H](O)[C@]12C,inactive,> 50,1.3,500,3.9,5200,2.9,7.8,0.7,>90,
Nc1nc(N)nc(Nc2ccc([As]3SCC(CO)S3)cc2)n1 (centres undefined) [MELARSOPROL],,,,,24.2,,3230,,,,
COc1ccc2c(c1OC)CO[C@@H]2[C@H]1c2c(cc3c(c2OC)OCO3)CCN1C(CN=C=S)c1ccccc1 (some centres undefined),inactive,> 50,2.3,1000,18.7,3700,8.2,18.4,5.07,>90,
C[C@@H](CCCN=C=S)[C@H]1CC[C@H]2[C@@H]3CC[C@@H]4C[C@H](O)CC[C@]4(C)[C@H]3CC[C@]12C,inactive,> 50,9.7,5400,4.5,4100,0.5,0.8,1.1,>90,
COc1ccc2c(c1OC)CO[C@@H]2[C@H]1c2c(cc3c(c2OC)OCO3)CCN1C(CN=C=S)c1ccc(C)cc1 (some centres undefined),inactive,> 50,3.1,800,1.5,1100,0.5,1.7,1.4,>90,

Compound,inhibition (Trypanosoma cruzi [2]),inhibition at 2 µg/mL [1] [%],IC50 [4] [µM],IC50 (Leishmania donovani [6]) [nM],IC50 (L6; read-out: IC50) [µM],IC50 (Plasmodium falciparum) [nM],selectivity ratio at 72 h [7],selectivity ratio at 72 h [9],selectivity ratio at 72 h [10],inhibition (INH) (Leishmania donovani [3]) [%],further results
C[C@@H](CCCN=C=S)[C@H]1CC[C@H]2[C@@H]3[C@H](O)C[C@@H]4C[C@H](O)CC[C@]4(C)[C@H]3CC[C@]12C,inactive,> 50,4.5,1500,5.4,4900,1.2,3.6,1.1,>90,
COc1ccc2c(c1OC)CO[C@@H]2[C@H]1c2c(cc3c(c2OC)OCO3)CCN1[C@@H](CN=C=S)c1ccc(F)cc1,inactive,> 50,1.7,800,13.6,2100,8,17.5,6.5,>90,
COc1ccc2c(c1OC)CO[C@@H]2[C@H]1c2c(cc3c(c2OC)OCO3)CCN1[C@@H](CN)c1ccc(F)cc1,,> 50,1.3,,38.8,2700,29.3,,14.5,,IC50 (Trypanosoma cruzi [5]): 10600 nM; inhibition at 2 µg/mL (Trypanosoma cruzi [2]): 53%; selectivity ratio at 72 h [8]: 3.7
COc1cc([C@@H]2c3cc4c(cc3[C@H](O)[C@H]3COC(=O)[C@H]23)OCO4)cc(OC)c1OC [PODOFILOX],,,,,,,,,,,IC50 (L6): 0.012 µM
COc1ccc(N=C=S)cc1OC,inactive,50,,,,,,,,,inhibition (Leishmania donovani [3]): inactive
CC(C)c1ccc2c(c1)CC[C@H]1[C@](C)(CN=C=S)CCC[C@]21C,inactive,> 50,5.7,4200,10,1100,1.8,2.4,9.4,>90,
CC(C)=C[C@H]1C[C@H](/C=C/c2[nH]c3ccccc3c2CCN(C)C)n2c1c(CCN(C)C)c1ccccc12,,,,,,,,,,,IC50 [11]: 6.2 µM
COC(=O)[C@H](Cc1ccccc1)N=C=S,inactive,> 50,,1000,13.9,,,14.4,,>90,
COc1ccc2c(c1OC)CO[C@@H]2[C@H]1c2c(cc3c(c2OC)OCO3)CCN1C(CN=C=S)c1ccc2c(c1)Cc1ccccc1-2 (some centres undefined),inactive,> 50,6.5,1300,3.9,2600,0.6,3.1,1.5,>90,
COc1ccc2c(c1OC)CO[C@@H]2[C@H]1c2c(cc3c(c2OC)OCO3)CCN1C(CN)c1ccccc1 (some centres undefined),,> 50,1.4,,12.1,2000,8.8,,6,,
S=C=NCCc1c[nH]c2ccccc12,inactive,> 50,4,1700,7.1,10300,1.8,4.2,0.7,>90,
S=C=NCc1ccccc1 [BENZYL ISOTHIOCYANATE],inactive,> 50,,,,,,,,,inhibition (Leishmania donovani [3]): inactive
CNCCc1c([C@H]2[C@H]3[C@H](C=C(C)CC3(C)C)c3c(CCNC)c4ccccc4n32)[nH]c2ccccc12,,,,,,,,,,,IC50 [11]: 2.8 µM
COc1ccc2c(c1OC)CO[C@@H]2[C@H]1c2c(cc3c(c2OC)OCO3)CCN1[C@@H](CN)c1cccnc1,,> 50,3.9,,14.4,,3.7,,,,
COc1ccc2c(c1OC)CO[C@@H]2[C@H]1c2c(cc3c(c2OC)OCO3)CCN1C(CN)c1ccc2c(c1)Cc1ccccc1-2 (some centres undefined),,> 50,3.5,,19.6,1800,5.6,,11.2,,
